Among the data in US9227971B2, “Pyrazolo[1,5-a]pyrimidine compounds as mTOR inhibitors” (Merck Sharp & Dohme Corp., priority 2010, dated 2016) are IC50 values, retold here.

pIC50: −log10 of the molar value. Where two headings read alike, the source gives them in different places.

Assay [1] has as its system phosphorylated 4E-BP1 Thr37/46 (p4E-BP1 Thr37/46), mTORC1 activity, PC3 cells. Put plainly: mTOR target engagement assay, immunofluorescent cell-based, p4E-BP1 Thr37/46 readout (mTORC1 activity). The conditions noted are these: read-out: p4E-BP1 Thr37/46 IC50. The essentials:
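Seed PC3 cells overnight; treat with compound dilutions for ninety minutes at 37° C; fix with glyoxal and block; stain with anti-p4E-BP1 Thr37/46 overnight at 4° C, then fluorescent secondary; read fluorescence and fit IC50 against DMSO-only controls.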

Assay [2] relates to phosphorylated AKT Ser473 (pAKT S473), mTORC2 activity, PC3 cells. Put plainly: mTOR target engagement assay, immunofluorescent cell-based, pAKT S473 readout (mTORC2 activity). The method, boiled down: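 After blocking, cells were stained overnight at 4 °C with anti-pAKT S473 antibody, then a fluorescent secondary; inhibition was read as reduced fluorescence intensity.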
Where [3] appears, read: Homo sapiens, PC-3, PC3 cells, compound treatment ninety minutes at 37° C.
Setting [4] is: Homo sapiens, PC-3, Table 6-1, PC3 cells.
The mark [5] stands for this setting: Homo sapiens, PC-3, Table 3-1, PC3 cells.
Setting [6] is: Homo sapiens, PC-3, Table 7-8, PC3 cells.

On to `NC(=O)c1c([C@@H]2C[C@H]3CC[C@@H](C2)N3C(=O)c2nc[nH]n2)nc2c(-c3ccc(-c4ccccc4)nc3)cnn2c1N` [Compound 8.40], for which the pIC50 in assay [1] (Homo sapiens, PC-3, PC3 cells) is 7.00 to 9.00; in assay [2] (Homo sapiens, PC-3, PC3 cells), 7.00 to 9.00.
`CC(=O)c1c([C@@H]2C[C@H]3CC[C@@H](C2)N3C#N)nc2c(-c3ccc(-c4ccccc4)nc3)cnn2c1N` [Compound 8.71, (1R,3s,5S)-3-(6-acetyl-7-amino-3-(6-phenylpyridin-3-yl)pyrazolo[1,5-a]pyrimidin-5-yl)-8-azabicyclo[3.2.1]octane-8-carbonitrile]: the pIC50 is 6.00 to 7.00 in assay [1] (Homo sapiens, PC-3, PC3 cells) and 6.00 to 7.00 in assay [2] (Homo sapiens, PC-3, PC3 cells).
`COCCNc1nnc(C(=O)N2[C@@H]3CC[C@H]2C[C@H](c2nc4c(-c5ccc(-c6ccccc6)nc5)cnn4c(N)c2C2CC2)C3)[nH]1` [Compound 4.31, ((1R,3s,5S)-3-(7-amino-6-cyclopropyl-3-(6-phenylpyridin-3-yl)pyrazolo[1,5-a]pyrimidin-5-yl)-8-azabicyclo[3.2.1]octan-8-yl)(5-(2-methoxyethylamino)-4H-1,2,4-triazol-3-yl)methanone]: the pIC50 in assay [1] (setting [3]) and in assay [2] (setting [3]) was 5.00 to 6.00 each time.
For `CC(=O)c1c(C2CC3CCC(C2)N3C(=O)c2c[nH]nn2)nc2c(-c3ccc(-c4ccccc4)nc3)cnn2c1N` [Compound 1.1.21, 1-(5-((1R,3s,5S)-8-(1H-1,2,3-triazole-5-carbonyl)-8-azabicyclo[3.2.1]octan-3-yl)-7-amino-3-(6-phenylpyridin-3-yl)pyrazolo[1,5-a]pyrimidin-6-yl)ethanone], the pIC50 in assay [1] (setting [3]) and in assay [2] (setting [3]) was 7.00 to 9.00 throughout.
In the case of `Cc1nnc(C(=O)N2[C@@H]3CC[C@H]2C[C@H](c2nc4c(-c5ccc(-c6ccccc6)nc5)cnn4c(N)c2C2CC2)C3)[nH]1` [Compound 4.2, ((1R,3a,5S)-3-(7-amino-6-cyclopropyl-3-(6-phenylpyridin-3-yl)pyrazolo[1,5-a]pyrimidin-5-yl)-8-azabicyclo[3.2.1]octan-8-yl)(5-methyl-4H-1,2,4-triazol-3-yl)methanone], the pIC50 in assay [1] (setting [3]) and in assay [2] (setting [3]) was 7.00 to 9.00 each time.
`COC(=O)N1[C@@H]2CC[C@H]1C[C@H](c1nc3c(-c4ccc(-c5ncc[nH]5)nc4)cnn3c(N)c1C(C)=O)C2` [Compound 6.25, (1R,3s,5S)-methyl 3-(3-(6-(1H-imidazol-2-yl)pyridin-3-yl)-6-acetyl-7-aminopyrazolo[1,5-a]pyrimidin-5-yl)-8-azabicyclo[3.2.1]octane-8-carboxylate]: the pIC50 in assay [1] (setting [4]) and in assay [2] (setting [4]) was 7.00 to 9.00 in each case.
For `CS(=O)(=O)c1c([C@@H]2C[C@H]3CC[C@@H](C2)N3C(=O)[C@H]2CCCN2)nc2c(-c3ccc(-c4ccccc4)nc3)cnn2c1N` [Compound 3.205], the pIC50 in assay [1] (setting [5]) and in assay [2] (setting [5]) was 6.00 to 7.00 each time.
As to `Cn1ccc(-c2ccc(-c3cnn4c(N)c(S(C)(=O)=O)c([C@@H]5C[C@H]6CC[C@@H](C5)N6C(=O)c5nnc[nH]5)nc34)c[n+]2[O-])n1` [Compound 3.41, 5-(5-((1R,3s,5S)-8-(4H-1,2,4-triazole-3-carbonyl)-8-azabicyclo[3.2.1]octan-3-yl)-7-amino-6-(methylsulfonyl)pyrazolo[1,5-a]pyrimidin-3-yl)-2-(1-methyl-1H-pyrazol-3-yl)pyridine 1-oxide], the pIC50 is 6.00 to 7.00 in assay [1] (setting [5]) and 7.00 to 9.00 in assay [2] (setting [5]).
Turning to `CS(=O)(=O)c1c([C@@H]2C[C@H]3CC[C@@H](C2)N3C(=O)c2nnc[nH]2)nc2c(-c3ccc(C4(O)COC4)nc3)cnn2c1N` [Compound 7.48, ((1R,3s,5S)-3-(7-amino-3-(6-(3-hydroxyoxetan-3-yl)pyridin-3-yl)-6-(methylsulfonyl)pyrazolo [1,5-a]pyrimidin-5-yl)-8-azabicyclo[3.2.1]octan-8-yl)(4H-1,2,4-triazol-3-yl)methanone], the pIC50 in assay [1] (setting [6]) and in assay [2] (setting [6]) was 5.00 to 6.00 each time.
`Nc1c(C2CC2)c([C@@H]2C[C@H]3CC[C@@H](C2)N3C(=O)c2nnc[nH]2)nc2c(-c3ccc(-c4ccc(OC(F)F)cc4)nc3)cnn12` [Compound 4.15, ((1R,3s,5S)-3-(7-amino-6-cyclopropyl-3-(6-(4-(difluoromethoxy)phenyl)pyridin-3-yl)pyrazolo[1,5-a]pyrimidin-5-yl)-8-azabicyclo[3.2.1]octan-8-yl)(4H-1,2,4-triazol-3-yl)methanone]: the pIC50 in assay [1] (setting [3]) and in assay [2] (setting [3]) was 6.00 to 7.00 in each case.
As to `CC(=O)c1c([C@@H]2C[C@H]3CC[C@@H](C2)N3C(=O)c2nnc[nH]2)nc2c(-c3ccc(C4(O)CCCC4)nc3)cnn2c1N` [Compound 7.50, 1-(5-((1R,3s,5S)-8-(4H-1,2,4-triazole-3-carbonyl)-8-azabicyclo[3.2.1]octan-3-yl)-7-amino-3-(6-(1-hydroxycyclopentyl)pyridin-3-yl)pyrazolo[1,5-a]pyrimidin-6-yl)ethanone], the pIC50 in assay [1] (setting [6]) and in assay [2] (setting [6]) was 7.00 to 9.00 each time.
For the compound `CC(=O)c1c([C@@H]2C[C@H]3CC[C@@H](C2)N3C(C)=O)nc2c(-c3ccc(-c4ncc[nH]4)nc3)cnn2c1N` [Compound 6.18, 1-(3-(6-(1H-imidazol-2-yl)pyridin-3-yl)-5-((1R,3s,5S)-8-acetyl-8-azabicyclo[3.2.1]octan-3-yl)-7-aminopyrazolo[1,5-a]pyrimidin-6-yl)ethanone], the pIC50 in assay [1] (setting [4]) and in assay [2] (setting [4]) was 7.00 to 9.00 in each case.
Regarding `CNC(=O)N1[C@@H]2CC[C@H]1C[C@H](c1nc3c(-c4ccc(-c5ccccc5)nc4)cnn3c(N)c1C1CC1)C2` [Compound 4.4, (1R,3a,5S)-3-(7-amino-6-cyclopropyl-3-(6-phenylpyridin-3-yl)pyrazolo[1,5-a]pyrimidin-5-yl)-N-methyl-8-azabicyclo[3.2.1]octane-8-carboxamide], the values for the pIC50 in assay [1] (setting [3]) and in assay [2] (setting [3]) were 6.00 to 7.00 and 7.00 to 9.00, respectively.
In the case of `CCOC(=O)Nc1ccc(-c2cnn3c(N)c(C(C)=O)c([C@@H]4C[C@H]5CC[C@@H](C4)N5C(=O)c4ncn[nH]4)nc23)cn1` [Compound 8.78, ethyl 5-(5-((1R,3s,5S)-8-(1H-1,2,4-triazole-5-carbonyl)-8-azabicyclo[3.2.1]octan-3-yl)-6-acetyl-7-aminopyrazolo[1,5-a]pyrimidin-3-yl)pyridin-2-ylcarbamate], the pIC50 is 7.00 to 9.00 in assay [1] (Homo sapiens, PC-3, PC3 cells) and 7.00 to 9.00 in assay [2] (Homo sapiens, PC-3, PC3 cells).
Regarding `CS(=O)(=O)c1c([C@@H]2C[C@H]3CC[C@@H](C2)N3C(=O)c2cccc(=O)[nH]2)nc2c(-c3ccc(-c4ccccc4)nc3)cnn2c1N` [Compound 3.140, 6-((1R,3s,5S)-3-(7-amino-6-(methylsulfonyl)-3-(6-phenylpyridin-3-yl)pyrazolo[1,5-a]pyrimidin-5-yl)-8-azabicyclo[3.2.1]octane-8-carbonyl)pyridin-2(1H)-one], the values for the pIC50 in assay [1] (setting [5]) and in assay [2] (setting [5]) were 6.00 to 7.00 and 7.00 to 9.00, respectively.
For the compound `CC(=O)c1c([C@@H]2C[C@H]3CC[C@@H](C2)N3C(=O)c2nnc[nH]2)nc2c(-c3ccc(-c4ccccc4F)nc3)cnn2c1N` [Compound 1.1.145, 1-(5-((1R,3s,5S)-8-(4H-1,2,4-triazole-3-carbonyl)-8-azabicyclo[3.2.1]octan-3-yl)-7-amino-3-(6-(2-fluorophenyl)pyridin-3-yl)pyrazolo[1,5-a]pyrimidin-6-yl)ethanone], the pIC50 in assay [1] (setting [3]) and in assay [2] (setting [3]) was 7.00 to 9.00 each time.
Take `CC(=O)c1c([C@@H]2C[C@H]3CC[C@@H](C2)N3C(=O)CO)nc2c(-c3ccc(-c4ncc[nH]4)cc3)cnn2c1N` [Compound 6.42, 1-((1R,3s,5S)-3-(3-(4-(1H-imidazol-2-yl)phenyl)-6-acetyl-7-aminopyrazolo[1,5-a]pyrimidin-5-yl)-8-azabicyclo[3.2.1]octan-8-yl)-2-hydroxyethanone]: the pIC50 in assay [1] (setting [4]) and in assay [2] (setting [4]) was 7.00 to 9.00 in each case.
Turning to `CS(=O)(=O)c1c([C@@H]2C[C@H]3CC[C@@H](C2)N3C(=O)NC2CC2)nc2c(-c3ccc(-c4ccccc4)nc3)cnn2c1N` [Compound 3.11, (1R,3s,5S)-3-(7-amino-6-(methylsulfonyl)-3-(6-phenylpyridin-3-yl)pyrazolo[1,5-a]pyrimidin-5-yl)-N-cyclopropyl-8-azabicyclo[3.2.1]octane-8-carboxamide], the pIC50 in assay [1] (setting [5]) is 5.00 to 6.00; in assay [2] (setting [5]), 6.00 to 7.00.
As for `COc1ccc(-c2ccc(-c3cnn4c(N)c(S(C)(=O)=O)c([C@H]5CC6CC[C@H](C5)N6C(=O)c5cn[nH]n5)nc34)cn2)cc1F` [Compound 3.169, ((1R,3a,5S)-3-(7-amino-3-(6-(3-fluoro-4-methoxyphenyl)pyridin-3-yl)-6-(methylsulfonyl)pyrazolo[1,5-a]pyrimidin-5-yl)-8-azabicyclo[3.2.1]octan-8-yl)(2H-1,2,3-triazol-4-yl)methanone], the pIC50 in assay [1] (setting [5]) is 6.00 to 7.00; in assay [2] (setting [5]) it was 7.00 to 9.00.
As to `CS(=O)(=O)c1c(C2CC3COCC(C2)N3C(=O)c2nc[nH]n2)nc2c(-c3ccc(-c4ccccc4)nc3)cnn2c1N` (single isomer, unassigned) [Compound 8.30, (7-(7-amino-6-(methylsulfonyl)-3-(6-phenylpyridin-3-yl)pyrazolo[1,5-a]pyrimidin-5-yl)-3-oxa-9-azabicyclo[3.3.1]nonan-9-yl)(1H-1,2,4-triazol-3-yl)methanone], the pIC50 in assay [1] (PC3 cells) and in assay [2] (PC3 cells) was 7.00 to 9.00 in each case.
